Laboratory results reported in US10213482B2, “Methods of treating chronic inflammatory diseases” (Centre National de la Recherche Scientifique, priority 2014, dated 2019).
Square brackets hold non-standard residues; d marks the D form. Ends that are not written are not given here. Peptide text beside a SMILES is read from it. Met(O) = CS(=O)CC[C@H](N)C(=O)O; pS = N[C@@H](COP(=O)(O)O)C(=O)O

Experiments:
[1] = Stability of the peptides at 37° C. in 10% mannitol (HPLC peak area); format: physicochemical
Procedure: The stability of the peptide SEQ ID NO: 1 in which the serine at position 10 is phosphorylated and the methionine at position 4 is oxydized (P140(MO)), and the peptide SEQ ID NO: 1 in which the serine at position 10 is phosphorylated (P140) was measured at 37° C., in a solution of 10% (v/v) mannitol. For each peptide, 3 concentrations have been tested: 200, 100 and 50 μg/mL.
At the indicated time, the integrity of P140 and P140(MO) peptides was measured in saline by high-performance liquid chromatography from the area of the peak corresponding to the intact peptide.
Stability is measured by using the HPLC peak surface.

Balb/c mice = assay: 15-day ovalbumin-induced airway hypereosinophilia model, BAL cell counts; format: in vivo, mouse; settings: i.n. or i.v., control mice challenged with saline; no pro-inflammatory effect
Procedure: The anti-inflammatory effect of the P140 phosphopeptide was evaluated when administered locally (intranasally) or systemically (intravenously) in a 15-day model of hypereosinophilic airway inflammation in mice.
The P140 phosphopeptide was solubilized in sterile water (Braun) and 10× concentrate sterile saline was added to adjust osmolarity to 300 mosm. Osmolarity was controlled with a micro osmometer (Loser, type 15) and validated (302 mosm).
The P140 phosphopeptide was used in vivo at the dose of 4 mg/kg by intranasal (i.n.) and intravenous (i.v.) routes. Control animals received equivalent volumes (1 ml/kg for i.n. and 2 ml/kg for i.v.) of saline (Table 6).
Nine-week-old male Balb/c mice were sensitized by intraperitoneal (i.p.) injections of a mixture containing 50 μg OVA (Sigma-Aldrich) and 2 mg alum (Sigma-Aldrich) in 0.1 ml saline. Mice were challenged by i.n. administration of 25 μl of OVA on day 5, then 25 μl of OVA and/or saline on day 12, 13 and 14. […]
BAL was performed twenty-four hours after LPS challenge as described (Daubeuf, F. and Frossard, N. 2012. Performing Bronchoalveolar Lavage in the Mouse. Curr Protoc Mouse Biol 2:167-175). […] The cell pellet was suspended in 500 μl of 0.9% NaCl and used for total cell counts evaluated on a Muse® Cell Analyser. Differential cell counts were assessed by flow cytometry (LSRII® cytometer, BD Bioscience). […]

MRL/lpr mice [2] = assay: Proteinuria analysis in MRL/lpr mice (Albustix); format: in vivo, mouse; settings: compared to the untreated mice
Procedure: Proteinuria of the above mice was measured in fresh urine using Albustix (Bayer Diagnostics) and was semi-quantitatively estimated according to a […] recommended by the manufacturer (no proteinuria=0; traces=1; 1+=2; 2+=3; 3+=4; 4+=5).
Statistical tests were performed using GraphPad Prism version 5.0. The two-way ANOVA test was used to analyze statistical significance of proteinuria differences between control and peptide-treated groups of mice. Survival of control and P140 analogue-treated female MRL/lpr mice was analyzed by the Kaplan-Meier method, and the significance of differences was determined by the log-rank test. For the other variables, statistical significance was assessed using the Student's t-test. p values less than 0.05 were considered significant.

MRL/lpr mice [3] = assay: Cellularity analysis of peripheral blood in MRL/lpr mice; format: in vivo, mouse; settings: 100 μg/100 μL, 5 days after unique injection
Procedure: MRL/lpr mice were injected with 100 μg/100 μL of P140 or P140(MO) and cellularity (preipheral blood) was studied 5 days after this unique injection. The count includes all the leucocytes. In view of the low number of tested mice, a non parametric statistical test has been realised Mann-Whitney).

Recombinant bovine HSC70 = molecular target: T1, Recombinant bovine HSC70 (Bos taurus, UniProt P19120); assay: BIAcore binding of P140 peptides to HSC70
T1 construct: purchased Stressgen
Procedure: BIAcore 3000 system (Biacore AB) was used to evaluate the binding of P140 peptides to HSC70 protein (Page et al., 2009, and 2011). Sensor chip CMS, surfactant P20, amine coupling kit containing N-hydroxysuccinimide (NHS) and N-ethyl-N′-dimethylaminopropyl carbodiimide (EDC), 2-(2-pyridinyldithio)ethaneamine (PDEA) and ethanolamine were from Biacore AB. Biosensor assays were performed with HBS-EP buffer as running buffer (10 mM HEPES, 150 mM NaCl, 3 mM EDTA, 0.005% surfactant P20, pH 7.4). The compounds were diluted in the running buffer. The sensor chip surface was regenerated after each experiment by injecting 10 μL of 10 mM HCl. Recombinant bovine HSC70 (Stressgen) was immobilized on flow cells of a CMS sensor chip through its thiol groups using 35 μL PDEA in 50 mM borate buffer, pH 8.3 on the NHS/EDC-activated matrix. Then, 35 μL of HSC70 (100 μg/mL in formate buffer, pH 4.3) were injected until a response of 13,000 response units (RU) corresponding to 13 ng/mm^2 of HSC70 was immobilized. Twenty μL of a 50 mM cysteine/1 M NaCl solution was used to saturate unoccupied sites on the chip. The direct binding measurement of P140 peptides to HSC70 was carried out at 25° C. with a constant flow rate of 20 μL/min. […] The kinetic parameters were calculated using the BIAeval 3.1 software on a personal computer. […]

mice = settings: Monneaux et al., 2003; cited from earlier work

T1 sequence (P19120 whole entry): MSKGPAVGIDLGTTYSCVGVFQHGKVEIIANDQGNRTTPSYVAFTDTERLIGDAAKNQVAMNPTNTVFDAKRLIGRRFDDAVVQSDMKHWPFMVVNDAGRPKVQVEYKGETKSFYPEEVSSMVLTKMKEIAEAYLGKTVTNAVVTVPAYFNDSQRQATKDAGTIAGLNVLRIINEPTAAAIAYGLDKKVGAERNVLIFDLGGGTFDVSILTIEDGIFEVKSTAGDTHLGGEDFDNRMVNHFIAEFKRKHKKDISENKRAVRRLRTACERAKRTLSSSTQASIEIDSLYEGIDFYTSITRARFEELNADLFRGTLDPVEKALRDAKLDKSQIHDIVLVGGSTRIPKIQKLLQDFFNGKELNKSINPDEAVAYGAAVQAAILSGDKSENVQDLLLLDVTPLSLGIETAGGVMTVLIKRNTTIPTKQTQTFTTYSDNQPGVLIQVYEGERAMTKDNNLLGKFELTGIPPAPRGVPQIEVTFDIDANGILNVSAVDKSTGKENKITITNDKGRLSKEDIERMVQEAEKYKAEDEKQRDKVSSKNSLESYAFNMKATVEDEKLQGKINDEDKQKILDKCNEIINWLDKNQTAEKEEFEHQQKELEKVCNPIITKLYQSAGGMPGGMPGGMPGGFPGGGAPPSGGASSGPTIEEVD

| Stability (%) Linear equation: coefficient of x (days) ([1]; 50 μg/mL) | Stability (%) Linear equation: constant term ([1]; 50 μg/mL) | Stability (%) Linear equation: coefficient of x (days) ([1]; 100 μg/mL) | Stability (%) Linear equation: constant term ([1]; 100 μg/mL) | Stability (%) Linear equation: coefficient of x (days) ([1]; 200 μg/mL) | Stability (%) Linear equation: constant term ([1]; 200 μg/mL) | Number of cells recovered in BAL fluid as compared to vehicle (Balb/c mice) | Affinity for HSC70 protein, comparison of oxidized and non-oxidized peptide (Recombinant bovine HSC70) | Compound | Proteinuria score over time (MRL/lpr mice [2]) | Peripheral hypercellularity (leucocytes in blood) (MRL/lpr mice [3]) | Protection against disease development (mice) |
| --- | --- | --- | --- | --- | --- | --- | --- | --- | --- | --- | --- |
| y = −0.099x + | 98.299 | y = −0.0612x + | 99.25 | y = −0.0238x + | 99.535 | little effect per se | – | CC[C@H](C)[C@H](NC(=O)[C@H](Cc1ccccc1)NC(=O)[C@H](C)NC(=O)[C@H](Cc1ccc(O)cc1)NC(=O)CNC(=O)[C@H](CCCNC(=N)N)NC(=O)[C@@H]1CCCN1C(=O)[C@H](CCCCN)NC(=O)CNC(=O)[C@H](COP(=O)(O)O)NC(=O)[C@H](CCCNC(=N)N)NC(=O)[C@H](CCCCN)NC(=O)[C@H](CO)NC(=O)[C@H](Cc1ccc(O)cc1)NC(=O)[C@@H](NC(=O)[C@H](CCSC)NC(=O)[C@H](Cc1c[nH]cn1)NC(=O)[C@@H](NC(=O)[C@@H](N)CCCNC(=N)N)[C@@H](C)CC)C(C)C)C(=O)N[C@@H](CCC(=O)O)C(=O)N[C@@H](Cc1ccc(O)cc1)C(=O)O [Compound P140] (H-RIHMVYSKR[pS]GKPRGYAFIEY-OH) | – | – | – |
| y = −0.0064x + | 99.677 | y = −0.0064x + | 100.11 | – | y = 100 | – | not statistically different | CC[C@H](C)[C@H](NC(=O)[C@H](Cc1ccccc1)NC(=O)[C@H](C)NC(=O)[C@H](Cc1ccc(O)cc1)NC(=O)CNC(=O)[C@H](CCCNC(=N)N)NC(=O)[C@@H]1CCCN1C(=O)[C@H](CCCCN)NC(=O)CNC(=O)[C@H](COP(=O)(O)O)NC(=O)[C@H](CCCNC(=N)N)NC(=O)[C@H](CCCCN)NC(=O)[C@H](CO)NC(=O)[C@H](Cc1ccc(O)cc1)NC(=O)[C@@H](NC(=O)[C@H](CC[S+](C)[O-])NC(=O)[C@H](Cc1c[nH]cn1)NC(=O)[C@@H](NC(=O)[C@@H](N)CCCNC(=N)N)[C@@H](C)CC)C(C)C)C(=O)N[C@@H](CCC(=O)O)C(=O)N[C@@H](Cc1ccc(O)cc1)C(=O)O (stereo partly shown) [P140(MO), RIHM(O)VYSKRS(PO3H2)GKPRGYAFIEY] (H-RIH[Met(O)]VYSKR[pS]GKPRGYAFIEY-OH) | less important and appears lately | decrease peripheral hypercellularity | – |
| – | – | – | – | – | – | – | – | non-phosphorylated peptide: non-phosphorylated form of P140, not protective against disease development in mice (RIHMVYSKRSGKPRGYAFIEY; not fully specified; UniProt P08621 131-151, looked up, fragment) | – | – | not protective |
